In ChEMBL document CHEMBL2439971, “Design, synthesis and antiproliferative evaluation of fluorenone analogs with DNA topoisomerase I inhibitory properties” (Bioorg Med Chem, 2013):
The source made the active and inactive calls. The rule behind the calls is not given here.

Assays:
Homo sapiens = organism: Homo sapiens; assay: Inhibition of telomerase (unknown origin) at 10 uM TRAP assay
CAKI-1 = assay: Cytotoxicity against human CAKI-1 cells at 10 uM after 48 hrs by sulforhodamine B assay relative to control; type: functional
MDA-MB-468 = assay: Cytotoxicity against human MDA-MB-468 cells at 10 uM after 48 hrs by sulforhodamine B assay relative to control; type: functional
T47D = assay: Cytotoxicity against human T47D cells at 10 uM after 48 hrs by sulforhodamine B assay relative to control; type: functional
BT-549 = assay: Cytotoxicity against human BT549 cells at 10 uM after 48 hrs by sulforhodamine B assay relative to control; type: functional
[1] = Cytotoxicity against human Hs 578T cells at 10 uM after 48 hrs by sulforhodamine B assay relative to control; type: functional
MDA-MB-231 = assay: Cytotoxicity against human MDA-MB-231 cells at 10 uM after 48 hrs by sulforhodamine B assay relative to control; type: functional
MCF7 = assay: Cytotoxicity against human MCF7 cells at 10 uM after 48 hrs by sulforhodamine B assay relative to control; type: functional
DU-145 = assay: Cytotoxicity against human DU145 cells at 10 uM after 48 hrs by sulforhodamine B assay relative to control; type: functional
PC-3 [2] = assay: Cytotoxicity against human PC3 cells at 10 uM after 48 hrs by sulforhodamine B assay relative to control; type: functional
UO-31 = assay: Cytotoxicity against human UO31 cells at 10 uM after 48 hrs by sulforhodamine B assay relative to control; type: functional
TK-10 = assay: Cytotoxicity against human TK10 cells at 10 uM after 48 hrs by sulforhodamine B assay relative to control; type: functional
SN12C = assay: Cytotoxicity against human SN12C cells at 10 uM after 48 hrs by sulforhodamine B assay relative to control; type: functional
RXF 393 = assay: Cytotoxicity against human RXF393 cells at 10 uM after 48 hrs by sulforhodamine B assay relative to control; type: functional
ACHN = assay: Cytotoxicity against human ACHN cells at 10 uM after 48 hrs by sulforhodamine B assay relative to control; type: functional
786-0 = assay: Cytotoxicity against human 786-0 cells at 10 uM after 48 hrs by sulforhodamine B assay relative to control; type: functional
NCI/ADR-RES = assay: Cytotoxicity against human NCI/ADR-RES cells at 10 uM after 48 hrs by sulforhodamine B assay relative to control; type: functional
OVCAR-8 = assay: Cytotoxicity against human OVCAR8 cells at 10 uM after 48 hrs by sulforhodamine B assay relative to control; type: functional
OVCAR-5 = assay: Cytotoxicity against human OVCAR5 cells at 10 uM after 48 hrs by sulforhodamine B assay relative to control; type: functional
OVCAR-4 = assay: Cytotoxicity against human OVCAR4 cells at 10 uM after 48 hrs by sulforhodamine B assay relative to control; type: functional
OVCAR-3 = assay: Cytotoxicity against human OVCAR3 cells at 10 uM after 48 hrs by sulforhodamine B assay relative to control; type: functional
IGROV-1 = assay: Cytotoxicity against human IGROV1 cells at 10 uM after 48 hrs by sulforhodamine B assay relative to control; type: functional
UACC-62 = assay: Cytotoxicity against human UACC62 cells at 10 uM after 48 hrs by sulforhodamine B assay relative to control; type: functional
UACC-257 = assay: Cytotoxicity against human UACC257 cells at 10 uM after 48 hrs by sulforhodamine B assay relative to control; type: functional
SK-MEL-5 = assay: Cytotoxicity against human SK-MEL-5 cells at 10 uM after 48 hrs by sulforhodamine B assay relative to control; type: functional
SK-MEL-28 = assay: Cytotoxicity against human SK-MEL-28 cells at 10 uM after 48 hrs by sulforhodamine B assay relative to control; type: functional
SK-MEL-2 = assay: Cytotoxicity against human SK-MEL-2 cells at 10 uM after 48 hrs by sulforhodamine B assay relative to control; type: functional
MDA-MB-435 = assay: Cytotoxicity against human MDA-MB-435 cells at 10 uM after 48 hrs by sulforhodamine B assay relative to control; type: functional
M14 = assay: Cytotoxicity against human M14 cells at 10 uM after 48 hrs by sulforhodamine B assay relative to control; type: functional
Malme-3M = assay: Cytotoxicity against human MALME-3M cells at 10 uM after 48 hrs by sulforhodamine B assay relative to control; type: functional
LOX IMVI = assay: Cytotoxicity against human LOXIMVI cells at 10 uM after 48 hrs by sulforhodamine B assay relative to control; type: functional
SNB-75 = assay: Cytotoxicity against human SNB75 cells at 10 uM after 48 hrs by sulforhodamine B assay relative to control; type: functional
U-251 = assay: Cytotoxicity against human U251 cells at 10 uM after 48 hrs by sulforhodamine B assay relative to control; type: functional
SF-539 = assay: Cytotoxicity against human SF539 cells at 10 uM after 48 hrs by sulforhodamine B assay relative to control; type: functional
SNB-19 = assay: Cytotoxicity against human SNB19 cells at 10 uM after 48 hrs by sulforhodamine B assay relative to control; type: functional
SF-295 = assay: Cytotoxicity against human SF295 cells at 10 uM after 48 hrs by sulforhodamine B assay relative to control; type: functional
SF-268 = assay: Cytotoxicity against human SF268 cells at 10 uM after 48 hrs by sulforhodamine B assay relative to control; type: functional
SW-620 = assay: Cytotoxicity against human SW620 cells at 10 uM after 48 hrs by sulforhodamine B assay relative to control; type: functional
KM12 = assay: Cytotoxicity against human KM12 cells at 10 uM after 48 hrs by sulforhodamine B assay relative to control; type: functional
HT-29 = assay: Cytotoxicity against human HT-29 cells at 10 uM after 48 hrs by sulforhodamine B assay relative to control; type: functional
HCT-15 = assay: Cytotoxicity against human HCT15 cells at 10 uM after 48 hrs by sulforhodamine B assay relative to control; type: functional
HCT-116 = assay: Cytotoxicity against human HCT116 cells at 10 uM after 48 hrs by sulforhodamine B assay relative to control; type: functional
HCC 2998 = assay: Cytotoxicity against human HCC2998 cells at 10 uM after 48 hrs by sulforhodamine B assay relative to control; type: functional
COLO 205 = assay: Cytotoxicity against human COLO205 cells at 10 uM after 48 hrs by sulforhodamine B assay relative to control; type: functional
NCI-H522 = assay: Cytotoxicity against human NCI-H522 cells at 10 uM after 48 hrs by sulforhodamine B assay relative to control; type: functional
NCI-H460 = assay: Cytotoxicity against human NCI-H460 cells at 10 uM after 48 hrs by sulforhodamine B assay relative to control; type: functional
NCI-H322M = assay: Cytotoxicity against human NCI-H322M cells at 10 uM after 48 hrs by sulforhodamine B assay relative to control; type: functional
NCI-H23 = assay: Cytotoxicity against human NCI-H23 cells at 10 uM after 48 hrs by sulforhodamine B assay relative to control; type: functional
NCI-H226 = assay: Cytotoxicity against human NCI-H226 cells at 10 uM after 48 hrs by sulforhodamine B assay relative to control; type: functional
HOP-62 = assay: Cytotoxicity against human HOP62 cells at 10 uM after 48 hrs by sulforhodamine B assay relative to control; type: functional
[3] = Cytotoxicity against human EKVX cells at 10 uM after 48 hrs by sulforhodamine B assay relative to control; type: functional
A549 = assay: Cytotoxicity against human A549 cells at 10 uM after 48 hrs by sulforhodamine B assay relative to control; type: functional
SR = assay: Cytotoxicity against human SR cells at 10 uM after 48 hrs by sulforhodamine B assay relative to control; type: functional
RPMI-8226 = assay: Cytotoxicity against human RPMI8226 cells at 10 uM after 48 hrs by sulforhodamine B assay relative to control; type: functional
MOLT-4 = assay: Cytotoxicity against human MOLT4 cells at 10 uM after 48 hrs by sulforhodamine B assay relative to control; type: functional
K562 = assay: Cytotoxicity against human K562 cells at 10 uM after 48 hrs by sulforhodamine B assay relative to control; type: functional
HL-60(TB) = assay: Cytotoxicity against human HL-60(TB) cells at 10 uM after 48 hrs by sulforhodamine B assay relative to control; type: functional
CCRF-CEM = assay: Cytotoxicity against human CCRF-CEM cells at 10 uM after 48 hrs by sulforhodamine B assay relative to control; type: functional
PC-3 [4] = assay: Cytotoxicity against human PC3 cells after 48 hrs by sulforhodamine B assay; type: functional, cell-based; conditions: PC-3, 48 h

Compound: O=C(CCN1CCOCC1)Nc1ccc2c(c1)C(=O)c1cc(NC(=O)CCN3CCOCC3)ccc1-2
- inhibition (Homo sapiens): inactive
- Activity (CAKI-1): 96.99%
- Activity (MDA-MB-468): 101.73%
- Activity (T47D): 101.34%
- Activity (BT-549): 113.53%
- Activity [1]: 101.67%
- Activity (MDA-MB-231): 122.26%
- Activity (MCF7): 88.76%
- Activity (DU-145): 117.55%
- Activity (PC-3 [2]): 113.85%
- Activity (UO-31): 86.58%
- Activity (TK-10): 112.26%
- Activity (SN12C): 104.8%
- Activity (RXF 393): 99.09%
- Activity (ACHN): 101.15%
- Activity (786-0): 110.24%
- Activity (NCI/ADR-RES): 102.84%
- Activity (OVCAR-8): 103.76%
- Activity (OVCAR-5): 103.99%
- Activity (OVCAR-4): 105.22%
- Activity (OVCAR-3): 121.23%
- Activity (IGROV-1): 95.95%
- Activity (UACC-62): 122.9%
- Activity (UACC-257): 113.13%
- Activity (SK-MEL-5): 102.76%
- Activity (SK-MEL-28): 104.41%
- Activity (SK-MEL-2): 131.96%
- Activity (MDA-MB-435): 104.2%
- Activity (M14): 127.51%
- Activity (Malme-3M): 118.44%
- Activity (LOX IMVI): 89.4%
- Activity (SNB-75): 82.97%
- Activity (U-251): 94.41%
- Activity (SF-539): 107.54%
- Activity (SNB-19): 110.22%
- Activity (SF-295): 105.19%
- Activity (SF-268): 115.57%
- Activity (SW-620): 106.16%
- Activity (KM12): 105.8%
- Activity (HT-29): 111.58%
- Activity (HCT-15): 108.42%
- Activity (HCT-116): 114.57%
- Activity (HCC 2998): 100.06%
- Activity (COLO 205): 105.48%
- Activity (NCI-H522): 102.66%
- Activity (NCI-H460): 105.97%
- Activity (NCI-H322M): 109.97%
- Activity (NCI-H23): 94.62%
- Activity (NCI-H226): 109.63%
- Activity (HOP-62): 115.73%
- Activity [3]: 99.88%
- Activity (A549): 98.13%
- Activity (SR): 98.5%
- Activity (RPMI-8226): 99.87%
- Activity (MOLT-4): 94.98%
- Activity (K562): 99.03%
- Activity (HL-60(TB)): 112.24%
- Activity (CCRF-CEM): 92.01%
- IC50 (PC-3 [4]): > 30 µM

Compound: CCCSCC(=O)Nc1ccc2c(c1)C(=O)c1cc(NC(=O)CSCCC)ccc1-2
- inhibition (Homo sapiens): inactive
- Activity (CAKI-1): 116.5%
- Activity (MDA-MB-468): 98.19%
- Activity (T47D): 94.56%
- Activity (BT-549): 79.13%
- Activity [1]: 92.42%
- Activity (MDA-MB-231): 110.09%
- Activity (MCF7): 92.24%
- Activity (DU-145): 111.27%
- Activity (PC-3 [2]): 94.41%
- Activity (UO-31): 104.91%
- Activity (TK-10): 109.43%
- Activity (SN12C): 102.58%
- Activity (RXF 393): 73.43%
- Activity (ACHN): 110.7%
- Activity (786-0): 88.03%
- Activity (NCI/ADR-RES): 100.59%
- Activity (OVCAR-8): 122.23%
- Activity (OVCAR-5): 106.86%
- Activity (OVCAR-4): 106.85%
- Activity (OVCAR-3): 108.65%
- Activity (IGROV-1): 103.61%
- Activity (UACC-62): 107.45%
- Activity (UACC-257): 137.38%
- Activity (SK-MEL-5): 91.99%
- Activity (SK-MEL-28): 90.58%
- Activity (SK-MEL-2): 106.67%
- Activity (MDA-MB-435): 102.08%
- Activity (M14): 99.86%
- Activity (Malme-3M): 107%
- Activity (LOX IMVI): 90.88%
- Activity (SNB-75): 88.25%
- Activity (U-251): 82.28%
- Activity (SF-539): 77.18%
- Activity (SNB-19): 102.55%
- Activity (SF-295): 69.6%
- Activity (SF-268): 121.78%
- Activity (SW-620): 117.49%
- Activity (KM12): 90.34%
- Activity (HT-29): 93.31%
- Activity (HCT-15): 86.05%
- Activity (HCT-116): 97.47%
- Activity (HCC 2998): 101.22%
- Activity (COLO 205): 111.93%
- Activity (NCI-H522): 80.15%
- Activity (NCI-H460): 110.9%
- Activity (NCI-H322M): 84.33%
- Activity (NCI-H23): 98.99%
- Activity (NCI-H226): 110.7%
- Activity (HOP-62): 106.36%
- Activity [3]: 100.02%
- Activity (A549): 99.19%
- Activity (SR): 76.63%
- Activity (RPMI-8226): 45.12%
- Activity (MOLT-4): 82.96%
- Activity (K562): 84.45%
- Activity (HL-60(TB)): 99.03%
- Activity (CCRF-CEM): 90.86%
- IC50 (PC-3 [4]): > 30 µM
